Laboratory results taken from PubChem BioAssay AID2060327 (Molecular Pharmacology Branch, DTP, NCI, 2025).
pIC50: −log10 of the molar value.

System: PC-3 multi-cell spheroids, viability
Assay: Anticancer human tumor PC-3 cell line growth inhibition [IpAb];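 note: spheroids exposed to compounds for 7 days before readout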;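 for viability, T/C: 100% = DMSO vehicle control wells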
Details: for pIC50: curve of first compound; for viability, T/C: stronger effect = lower value
Method in brief: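 Multi-cell spheroids of 60% tumour cells, 25% HUVEC and 15% MSC in ultra-low-attachment U-bottom wells, treated with agents combined with ipatasertib or abemaciclib. Half-log ranges top out near clinical Cmax, or 10 microM when Cmax is unknown.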

[1] = second compound 0.01 µM, first compound 0.0316 µM
[2] = second compound 0.01 µM, first compound 0.1 µM
[3] = second compound 0.01 µM, first compound 0.316 µM
[4] = second compound 0.01 µM, first compound 1 µM
[5] = second compound 0.01 µM, first compound 3.16 µM
[6] = second compound 0.01 µM, first compound 10 µM
[7] = second compound 0.0316 µM, first compound 0.0316 µM
[8] = second compound 0.0316 µM, first compound 0.1 µM
[9] = second compound 0.0316 µM, first compound 0.316 µM
[10] = second compound 0.0316 µM, first compound 1 µM
[11] = second compound 0.0316 µM, first compound 3.16 µM
[12] = second compound 0.0316 µM, first compound 10 µM
[13] = second compound 0.1 µM, first compound 0.0316 µM
[14] = second compound 0.1 µM, first compound 0.1 µM
[15] = second compound 0.1 µM, first compound 0.316 µM
[16] = second compound 0.1 µM, first compound 1 µM
[17] = second compound 0.1 µM, first compound 3.16 µM
[18] = second compound 0.1 µM, first compound 10 µM
[19] = second compound 0.316 µM, first compound 0.0316 µM
[20] = second compound 0.316 µM, first compound 0.1 µM
[21] = second compound 0.316 µM, first compound 0.316 µM
[22] = second compound 0.316 µM, first compound 1 µM
[23] = second compound 0.316 µM, first compound 3.16 µM
[24] = second compound 0.316 µM, first compound 10 µM
[25] = second compound 1 µM, first compound 0.0316 µM
[26] = second compound 1 µM, first compound 0.1 µM
[27] = second compound 1 µM, first compound 0.316 µM
[28] = second compound 1 µM, first compound 1 µM
[29] = second compound 1 µM, first compound 3.16 µM
[30] = second compound 1 µM, first compound 10 µM

| Structure (SMILES) | pIC50 (second compound 0.01 µM) | pIC50 (second compound 0.0316 µM) | pIC50 (second compound 0.1 µM) | pIC50 (second compound 0.316 µM) | pIC50 (second compound 1 µM) | viability, T/C [1] [%] | viability, T/C [2] [%] | viability, T/C [3] [%] | viability, T/C [4] [%] | viability, T/C [7] [%] | viability, T/C [8] [%] | viability, T/C [9] [%] | viability, T/C [10] [%] | viability, T/C [13] [%] | viability, T/C [14] [%] | viability, T/C [15] [%] | viability, T/C [16] [%] | viability, T/C [19] [%] | viability, T/C [20] [%] | viability, T/C [21] [%] | further results |
| --- | --- | --- | --- | --- | --- | --- | --- | --- | --- | --- | --- | --- | --- | --- | --- | --- | --- | --- | --- | --- | --- |
| CC1(C)CCC(CN2CCN(c3ccc(C(=O)NS(=O)(=O)c4ccc(NCC5CCOCC5)c([N+](=O)[O-])c4)c(Oc4cnc5[nH]ccc5c4)c3)CC2)=C(c2ccc(Cl)cc2)C1 + CCN1CCN(Cc2ccc(Nc3ncc(F)c(-c4cc(F)c5nc(C)n(C(C)C)c5c4)n3)nc2)CC1 | 5.26 | 5.34 | 5.38 | 5.40 | 5.89 | 102 | 101 | 107 | 98.1 | 73.1 | 71.5 | 73.6 | 64.8 | 65.9 | 66 | 58.7 | 64.2 | 62.9 | 70.4 | 66.3 | viability, T/C [5]: 93.2%; viability, T/C [6]: 4%; viability, T/C [11]: 71.4%; viability, T/C [12]: 4.41%; viability, T/C [17]: 70.1%; viability, T/C [18]: 3.35%; viability, T/C [22]: 61.7%; viability, T/C [23]: 61.9%; viability, T/C [24]: 3.28%; viability, T/C [25]: 60.8%; viability, T/C [26]: 60.2%; viability, T/C [27]: 54.3%; viability, T/C [28]: 51.8%; viability, T/C [29]: 41.5%; viability, T/C [30]: 4.98% |
| CCCS(=O)(=O)Nc1ccc(F)c(C(=O)c2c[nH]c3ncc(-c4ccc(Cl)cc4)cc23)c1F + CCN1CCN(Cc2ccc(Nc3ncc(F)c(-c4cc(F)c5nc(C)n(C(C)C)c5c4)n3)nc2)CC1 | 5.04 | 5.18 | 5.06 | 5.37 | 5.47 | 92.5 | 96.8 | 104 | 99.5 | 65 | 79.1 | 71.7 | 77.8 | 57.3 | 57.4 | 68.6 | 64.1 | 64.7 | 64 | 68 | viability, T/C [5]: 76.3%; viability, T/C [6]: 47.4%; viability, T/C [11]: 69.3%; viability, T/C [12]: 38.8%; viability, T/C [17]: 61.9%; viability, T/C [18]: 34.9%; viability, T/C [22]: 62.4%; viability, T/C [23]: 57.2%; viability, T/C [24]: 30.6%; viability, T/C [25]: 61.5%; viability, T/C [26]: 58.5%; viability, T/C [27]: 65.3%; viability, T/C [28]: 54.6%; viability, T/C [29]: 52.6%; viability, T/C [30]: 30.6% |
| COc1c(OCCCN2CCOCC2)ccc2c3n(c(=NC(=O)c4cnc(N)nc4)nc12)CCN3 + CCN1CCN(Cc2ccc(Nc3ncc(F)c(-c4cc(F)c5nc(C)n(C(C)C)c5c4)n3)nc2)CC1 | 7.02 | 7.04 | 7.06 | 7.11 | 7.09 | 140 | 47 | 13.3 | 8.39 | 142 | 43.2 | 11 | 8.82 | 140 | 37 | 12.8 | 9.54 | 111 | 34.5 | 14.8 | viability, T/C (second compound 0.01 µM, first compound 0.00316 µM): 89.5%; viability, T/C (second compound 0.01 µM, first compound 0.01 µM): 99.3%; viability, T/C (second compound 0.0316 µM, first compound 0.00316 µM): 109%; viability, T/C (second compound 0.0316 µM, first compound 0.01 µM): 121%; viability, T/C (second compound 0.1 µM, first compound 0.00316 µM): 156%; viability, T/C (second compound 0.1 µM, first compound 0.01 µM): 161%; viability, T/C (second compound 0.316 µM, first compound 0.00316 µM): 174%; viability, T/C (second compound 0.316 µM, first compound 0.01 µM): 170%; viability, T/C [22]: 13.3%; viability, T/C (second compound 1 µM, first compound 0.00316 µM): 173%; viability, T/C (second compound 1 µM, first compound 0.01 µM): 171%; viability, T/C [25]: 104%; viability, T/C [26]: 40.4%; viability, T/C [27]: 25%; viability, T/C [28]: 28.6% |
| Cc1nc(NC(=O)N2CCCC2C(N)=O)sc1-c1ccnc(C(C)(C)C(F)(F)F)c1 (stereo not given) + CCN1CCN(Cc2ccc(Nc3ncc(F)c(-c4cc(F)c5nc(C)n(C(C)C)c5c4)n3)nc2)CC1 | 5.95 | 5.86 | 6.31 | 6.28 | 6.76 | 68.2 | 48.2 | 50.6 | 51.2 | 54.5 | 52.7 | 58.6 | 53.9 | 49 | 55.5 | 51.2 | 47.5 | 59.4 | 63.2 | 55.6 | viability, T/C [5]: 43.4%; viability, T/C [6]: 13.6%; viability, T/C [11]: 39.1%; viability, T/C [12]: 11.1%; viability, T/C [17]: 32.9%; viability, T/C [18]: 11.5%; viability, T/C [22]: 41.5%; viability, T/C [23]: 27.8%; viability, T/C [24]: 11.9%; viability, T/C [25]: 62%; viability, T/C [26]: 53.6%; viability, T/C [27]: 45.9%; viability, T/C [28]: 29.6%; viability, T/C [29]: 20.6%; viability, T/C [30]: 14.4% |
